Target: T1, BRD4(BD1) (Homo sapiens, UniProt O60885)
T1 construct: a BRD4(BD1) synthetic gene that includes a TEV cleavage site was purchased from LifeTechnology; made in house
Test: HTRF assay on robot-synthesised focused library (Example 4 bis)
Format: binding
Details: Table 2 bis; focused library without intermediary purification; read-out: HTRF (IC50, μM), effect on BRD4(BD1) activity
Description: (§1) The Accelerator Synthetizer SLT100 allows the efficient synthesis of the focused library in 96 well plates that can be directly transferred to a Labcyte Access/Echo® Laboratory Workstation to assess the compounds for their ability to disrupt bromodmain/histone complexes using the homogeneous time-resolved fluorescence (HTRF®) technology (IC50 μM).
as §1, with “After” for “The Accelerator Synthetizer SLT100 allows”, “with the Accelerator Synthetizer SLT100, the focused library has been” for “that can be”, “μM, table 2bis).” for “μM).”

Compound	IC50 [µM]
CCn1c(COc2ncc(-c3ccc(C(=O)O)s3)cc2C)nc2c1c(=O)[nH]c(=O)n2Cc1ccc(Cl)cc1 [Compound 72]	4.4
CCCCn1c(=O)[nH]c(=O)c2c1nc(COc1cccc(C(=O)NCc3ccccc3)c1)n2CC [Compound 51]	30.2
CCn1c(COc2ccc(C3NC(C(=O)O)CS3)cc2)nc2c1c(=O)[nH]c(=O)n2Cc1ccc(Cl)cc1 (stereo not drawn) [Compound 73]	7.5
CCCCn1c(=O)[nH]c(=O)c2c1nc(CSc1nc3nc(C)ccc3o1)n2CC [Compound 54]	7.1
CCn1c(CSc2nc3ccc(C(=O)O)cc3o2)nc2c1c(=O)[nH]c(=O)n2Cc1ccc(Cl)cc1 [Compound 56]	13.2

Target: T1, BRD4(BD1)
Test: HTRF assay, disruption of bromodomain/histone peptide interaction
Format: binding
Details: HTRF; mean ± SD of three experiments; Table 2; read-out: IC50 μM, effect on BRD4(BD1) activity
Description: HTRF assays were performed in white 384 Well Small Volume™ HiBase Polystyrene Microplates (Greiner) with a total working volume of 20 μL. Compounds were dispensed, with 200 nL per well (1% final DMSO), from a concentration stock of 1 mM in 100% DMSO and with serial DMSO dilutions, using a Mosquito Crystal pipetting robot platform (TTP labtech). The IC50 measurements were performed in triplicates (Table 2 and 3). All HTRF reagents were purchased from CisBio Bioassays and reconstituted according to the supplier protocols. For each assay 14.7 μL of mix 1 (protein+peptide) is added in the assay wells, containing previously dispensed inhibitors, according to the final concentration and buffer described in Table 4, using a Biomek NX MC pipetting robot (Beckman). Then, 5.1 μL of mix 2 (donnor+acceptor) is added. HTRF signals were measured, after a final incubation (overnight at room temperature), using a PHERAstar FS (BMG Labtech) with an excitation filter at 337 nm and fluorescence wavelength measurement at 620 and 665 nm, an integration delay of 60 μs and an integration time of 500 μs. Results were analyzed with a two-wavelengths signal ratio: [intensity (665 nm)/intensity (620 nm)]*10^4. Percentage of inhibition was calculated using the following equation: % inhibition=[(compound signal)−(min signal)]/[(max signal)−(min signal)]*100, where ‘max signal’ is the signal ratio with the compound vehicle alone (DMSO) and ‘min signal’ the signal ratio without peptide.
For Isothermal Titration Calorimetry (ITC) and crystallogenesis, BRD4(BD1) was produced and purified using a histidine tag affinity chromatography as described by Filipakopoulos et al.9 For these experiments, a pNIC28-BSA4 expression vector containing BRD4(BD1) and a Tobacco Etch Virus (TEV) protease cleavage site have kindly been provided by Stefan Knapp laboratory from the SGC at the University of Oxford. After size exclusion chromatography, the fractions presenting pure BRD4(BD1) after TEV cleavage of the histidine tag were pooled and concentrated to 25 mg/mL for crystallogenesis. For ITC assays, the protein was concentrated up to at 6 mg/mL and the DTT was removed using a buffer exchange column (PD10 from GE healthcare) equilibrated with 10 mM HEPES pH=7.5, 150 mM NaCl. For Homogeneous Time Resolved Fluorimetry (HTRF) experiments, a BRD4(BD1) synthetic gene that includes a TEV cleavage site was purchased from LifeTechnology in a pDONR transport vector before cloning into a pDESTTM15 expression vector for GST affinity purification. Protein production and purification was carried out using similar protocols and buffers as used for the His-BRD4(BD1) system. Purification was carried on GST affinity resin (Thermo Scientific) and reduced glutathione was used for protein release. GST-BRD4(BD1) was further purified by size exclusion chromatography on a Superdex 16/60 Hiload column (GE Healthcare) using 20 mM TRIS pH=8.0, 150 mM NaCl Buffer.

Compound	IC50 [µM]
CCCCn1c(=O)[nH]c(=O)c2c1nc(CO)n2CCC [Compound 18b]	> 100
CCn1cnc2[nH]c(NC(=O)OC(C)(C)C)nc(=O)c21 [Compound 3c]	> 100
CCCCn1c(=O)[nH]c(=O)c2c1nc(Sc1nc3nc(C)cc(C)n3n1)n2CC [Compound 28b, 3-Butyl-8-(5,7-dimethyl-[1,2,4]triazolo[1,5-a]pyrimidin-2-ylsulfanyl)-7-ethyl-3,7-dihydro-purine-2,6-dione]	> 100
O=c1[nH]c(=O)c2[nH]c(Br)nc2[nH]1 [Compound 11b]	> 100
CCn1c(CO)nc2c1c(=O)[nH]c(=O)n2Cc1ccccc1 [Compound 18c]	> 100
CCCCn1c(=O)[nH]c(=O)c2c1nc(CSc1nc3nc(C)cc(C)n3n1)n2CC [Compound 24b]	69.6
CCn1cnc2c1c(=O)[nH]c(=O)n2CC(C)C [Compound 5c]	> 100
CCn1cnc2c1c(=O)[nH]c(=O)n2CC [Compound 5a]	70.3
CCn1cnc2[nH]c(=O)[nH]c(=O)c21 [Compound 3a, 7-Ethylxanthine]	> 100
CCc1cc(CC)n2nc(Sc3nc4c(c(=O)[nH]c(=O)n4Cc4ccc(Cl)cc4)n3CC)nc2n1 [Compound 30a]	18.3
CCCCn1c(=O)[nH]c(=O)c2c1nc(CO)n2CC [Compound 18a, 3-Butyl-7-ethyl-8-hydroxymethylxanthine]	> 100
CCn1cnc2c1c(=O)nc(NC(=O)OC(C)(C)C)n2C(=O)OC(C)(C)C [Compound 8b]	> 100
CCCCn1c(=O)[nH]c(=O)c2c1nc(CSc1n[nH]c(N)n1)n2CC [Compound 21b, 8-(5-Amino-1H-[1,2,4]triazol-3-ylsulfanylmethyl)-3-butyl-7-ethyl-3,7-dihydro-purine-2,6-dione]	89.1
CCn1c(SC)nc2c1c(=O)[nH]c(=O)n2C [Compound 15c]	100
CCn1c(CO)nc2c1c(=O)[nH]c(=O)n2Cc1ccc(Cl)cc1 [Compound 19a]	93.3
Cn1cnc2[nH]c(=O)[nH]c(=O)c21 [Compound 2c]	> 100
CCCCc1c(C)nc2nc(SCc3nc4c(c(=O)[nH]c(=O)n4Cc4ccc(Cl)cc4)n3C)nn2c1C [Compound 27a]	100
O=c1[nH]c(=O)n(Cc2ccc(Cl)cc2)c2nc[nH]c12 [Compound 4a]	> 100
O=c1[nH]c(=O)n(Cc2ccc(Cl)cc2)c2nc(Br)[nH]c12 [Compound 11c]	> 100
CCn1cnc2c1c(=O)[nH]c(=O)n2C(C)C [Compound 5b]	52.5
O=C(O)CCSc1nc2c([nH]1)c(=O)[nH]c(=O)n2Cc1ccc(F)cc1 [Compound 16a]	> 100
CCn1c(CSc2nc3ccccc3[nH]2)nc2c1c(=O)[nH]c(=O)n2Cc1ccc(Cl)cc1 [Compound 23a]	> 100
CCCCn1c(=O)[nH]c(=O)c2c1nc(CO)n2C [Compound 17c]	> 100
CCCCn1c(=O)[nH]c(=O)c2c1nc(S)n2CC [Compound 15a, 3-butyl-7-ethyl-8-mercaptoxanthine]	35.1
CCCCc1c(C)nc2nc(CSc3nc4c(c(=O)[nH]c(=O)n4Cc4ccc(Cl)cc4)n3CC)nn2c1C [Compound 31b]	59.6
CCn1cnc2[nH]c(N)nc(=O)c21 [Compound 1c, 7-ethylguanine]	> 100
CCn1cnc2c1c(=O)[nH]c(=O)n2Cc1ccc(Br)cc1 [Compound 6c]	2.6
CCCCc1c(C)nc2nc(Sc3nc4c(c(=O)[nH]c(=O)n4Cc4ccc(Cl)cc4)n3CC)nn2c1C [Compound 31a]	46.8

Compound	IC50 [µM]
Nc1nc2nc[nH]c2c(=O)[nH]1 [Compound 1a]	> 100
Cn1cnc2nc(N)[nH]c(=O)c21 [Compound 1b]	> 100
CCn1cnc2c1c(=O)[nH]c(=O)n2C [Compound 4c]	> 100
CCn1cnc2c1c(=O)nc(N)n2Cc1ccc(Cl)cc1 [Compound 9a]	> 100
CCn1cnc2c1c(=O)[nH]c(=O)n2Cc1ccc(C(C)(C)C)cc1 [Compound 7b]	2.6
CCCCn1c(N)nc(=O)c2c1ncn2CC [Compound 8c]	10.7
O=c1[nH]c(=O)c2[nH]cnc2[nH]1 [Compound 2b, xanthine]	> 100
Cn1c(-c2ccc(Cl)cc2)nc2c1c(=O)[nH]c(=O)n2Cc1ccccc1 [Compound 10c]	> 100
CCn1c(CSc2nc[nH]n2)nc2c1c(=O)[nH]c(=O)n2Cc1ccc(Cl)cc1 [Compound 21a]	45.6
O=c1[nH]c(=O)n(Cc2ccc(Cl)cc2)c2nc(CO)[nH]c12 [Compound 17b]	> 100
CCn1c(CSc2cc3ccccc3[nH]2)nc2c1c(=O)[nH]c(=O)n2Cc1ccc(Cl)cc1 [Compound 24a]	> 100
Nc1nc2nc[nH]c2c(=S)[nH]1 [Compound 2a]	> 100
CCCCn1c(=O)[nH]c(=O)c2c1nc(CSc1cc3ccccc3[nH]1)n2CC [Compound 23b]	> 100
CCCCn1c(=O)[nH]c(=O)c2[nH]c(CO)nc21 [Compound 17a, 3-Butyl-8-hydroxymethylxanthine]	> 100
CCCCn1c(=O)[nH]c(=O)c2c1nc(Cl)n2CC [Compound 12c, 3-Butyl-8-chloro-7-ethylxanthine]	> 100
CCn1c(S)nc2c1c(=O)[nH]c(=O)n2C [Compound 14c]	< 100
CCn1c(Sc2nc3nc(C)cc(C)n3n2)nc2c1c(=O)[nH]c(=O)n2Cc1ccc(Cl)cc1 [Compound 29a]	> 100
CCCCc1c(C)nc2nc(CSc3nc4c(c(=O)[nH]c(=O)n4CCCC)n3CC)nn2c1C [Compound 32a, 3-Butyl-8-(6-butyl-5,7-dimethyl-[1,2,4]triazolo[1,5-a]pyrimidin-2-ylmethylsulfanyl)-7-ethyl-3,7-dihydro-purine-2,6-dione]	54
CCCCn1c(=O)[nH]c(=O)c2c1nc(CCl)n2CC [Compound 19c, 3-butyl-8-chloromethyl-7-ethylxanthine]	> 100
CCCCn1c(=O)[nH]c(=O)c2c1nc(CSc1nc3nc(CC)cc(CC)n3n1)n2CC [Compound 25b]	46.6
CCCCn1c(=O)[nH]c(=O)c2c1nc(CSc1nc3ccccc3[nH]1)n2CC [Compound 22b]	> 100
CCn1c(Br)nc2c1c(=O)[nH]c(=O)n2Cc1ccc(Cl)cc1 [Compound 12b]	< 100
CCn1cnc2c1c(=O)nc(NC(=O)OC(C)(C)C)n2Cc1ccc(Cl)cc1 [Compound 8a]	> 100
CCn1c(Br)nc2[nH]c(=O)[nH]c(=O)c21 [Compound 12a]	> 100
CCCCn1c(NC(=O)OC(C)(C)C)nc(=O)c2c1ncn2CC [Compound 7c]	17.9
CC(C)Cn1cnc2[nH]c(=O)[nH]c(=O)c21 [Compound 3b]	> 100
CCCCc1c(C)nc2nc(SCc3nc4c(c(=O)[nH]c(=O)n4Cc4ccc(Cl)cc4)n3CC(C)C)nn2c1C [Compound 28a]	> 100

Reference: patent US11225481B2 (Centre national de la recherche scientifique, priority 2015, dated 2022)
